Data reported in patent publication US20150322112A1, “SEMA5B PEPTIDES AND VACCINES CONTAINING THE SAME” (ONCOTHERAPY SCIENCE, INC., priority 2012, published 2015).
Entries after “also recorded” stand apart in the source; their conditions may differ. No end group written: not given here.

Assays:
[1] = tested on: peptide-pulsed TISI cells; test: In vitro CTL induction with peptide-pulsed DCs, IFN-gamma ELISPOT assay; type: cell-based, human; details: for Peptide specific CTL activity (IFN-gamma production), IFN-gamma ELISPOT: CTLs induced with the peptide, target cells pulsed with peptide vs not pulsed (control); for CTL inducibility: summary statement in the description
Source text: Monocyte-derived dendritic cells (DCs) were used as antigen-presenting cells to induce cytotoxic T lymphocyte (CTL) responses against peptides presented on human leukocyte antigen (HLA). DCs were generated in vitro as described elsewhere (Nakahara S et al., Cancer Res 2003 Jul. 15, 63(14): 4112-8). Specifically, peripheral blood mononuclear cells isolated from a normal volunteer (HLA-A*2402 positive) by Ficoll-Paque plus (Pharmacia) solution were separated by adherence to a plastic tissue culture dish (Becton Dickinson) so as to enrich them as the monocyte fraction. The monocyte-enriched population was cultured in the presence of 1000 IU/ml of granulocyte-macrophage colony-stimulating factor (R&D System) and 1000 IU/ml of interleukin (IL)-4 (R&D System) in AIM-V Medium (Invitrogen) containing 2% heatinactivated autologous serum (AS). After 7 days of culture, the cytokine-induced DCs were pulsed with 20 micro g/ml of each of the synthesized peptides in the presence of 3 micro g/ml of beta 2-microglobulin for 3 hr at 37 degrees C. in AIM-V Medium. The generated cells appeared to express DC-associated molecules, such as CD80, CD83, CD86 and HLA class II, on their cell surfaces (data not shown). These peptide-pulsed DCs were then inactivated by X ray-irradiated (20 Gy) and mixed at a 1:20 ratio with autologous CD8+ T cells, obtained by positive selection with CD8 Positive Isolation Kit (Dynal). These cultures were set up in 48-well plates (Corning); each well contained 1.5×10^4 peptide-pulsed DCs, 3×10^5 CD8+ T cells and 10 ng/ml of IL-7 (R&D System) in 0.5 ml of AIM-V/2% AS medium. Three days later, these cultures were supplemented with IL-2 (CHIRON) to a final concentration of 20 IU/ml. On day 7 and 14, the T cells were further stimulated with the autologous peptide-pulsed DCs. The DCs were prepared each time by the same way described above. CTL was tested against peptide-pulsed TISI cells after the 3rd round of peptide stimulation on day 21 (Tanaka H et al., Br J Cancer 2001 Jan 5, 84(1): 94-9; Umano Y et al., Br J Cancer 2001 Apr. 20, 84(8): 1052-7; Uchida N et al., Clin Cancer Res 2004 Dec. 15, 10(24): 8577-86; Suda T et al., Cancer Sci 2006 May, 97(5): 411-9; Watanabe T et al., Cancer Sci 2005 August, 96(8): 498-506).
(§1) Peptide-pulsed TISI (1×10^4/well) was prepared as stimulator cells. Cultured cells in 48 wells were used as responder cells. IFN-gamma ELISPOT assay and IFN-gamma ELISA were performed under manufacture procedure.

[2] = tested on: peptide-pulsed TISI cells; test: IFN-gamma ELISA of expanded CTL lines; type: cell-based, human; details: CTL lines stimulated with the peptide; target cells pulsed with peptide vs without peptide pulse
Experimental: CTLs were expanded in culture using the method similar to the one described by Riddell et al. (Walter E A et al., N Engl J Med 1995 October 19, 333(16): 1038-44; Riddell S R et al., Nat Med 1996 February, 2(2): 216-23). A total of 5×10^4 CTLs were suspended in 25 ml of AIM-V/5% AS medium with 2 kinds of human B-lymphoblastoid cell lines, inactivated by Mitomycin C, in the presence of 40 ng/ml of anti-CD3 monoclonal antibody (Pharmingen). One day after initiating the cultures, 120 IU/ml of IL-2 were added to the cultures. The cultures were fed with fresh AIM-V/5% AS medium containing 30 IU/ml of IL-2 on days 5, 8 and 11 (Tanaka H et al., Br J Cancer 2001 Jan 5, 84(1): 94-9; Umano Y et al., Br J Cancer 2001 Apr. 20, 84(8): 1052-7; Uchida N et al., Clin Cancer Res 2004 Dec. 15, 10(24): 8577-86; Suda T et al., Cancer Sci 2006 May, 97(5): 411-9; Watanabe T et al., Cancer Sci 2005 August, 96(8): 498-506).
as §1

[3] = tested on: peptide-pulsed TISI cells; test: IFN-gamma ELISA of CTL clones established by limiting dilution; type: cell-based, human; details: CTL clones from limiting dilution, target cells pulsed with peptide vs not pulsed
Experimental: The dilutions were made to have 0.3, 1, and 3 CTLs/well in 96 round-bottomed micro titer plate (Nalge Nunc International). CTLs were cultured with 1×10^4 cells/well of 2 kinds of human B-lymphoblastoid cell lines, 30 ng/ml of anti-CD3 antibody, and 125 IU/ml of IL-2 in a total of 150 micro 1/well of AIM-V Medium containing 5% AS. 50 micro 1/well of IL-2 were added to the medium 10 days later so to reach a final concentration of 125 IU/ml IL-2. CTL activity was tested on the 14th day, and CTL clones were expanded using the same method as described above (Uchida N et al., Clin Cancer Res 2004 Dec. 15, 10(24): 8577-86; Suda T et al., Cancer Sci 2006 May, 97(5): 411-9; Watanabe T et al., Cancer Sci 2005 August, 96(8): 498-506).
as §1

[4] = tested on: COS7 cells transfected with SEMA5B and HLA-A*2402; test: Specific CTL activity against target cells expressing SEMA5B and HLA-A*2402; type: cell-based, African green monkey; details: CTL line established with the peptide
Source text: The cDNA encoding an open reading frame of target genes or HLA-A*2402 was amplified by PCR. The PCR-amplified product was cloned into expression vector. The plasmids were transfected into COS7, which is the target genes and HLA-A*2402-null cell line, using lipofectamine 2000 (Invitrogen) according to the manufacturer's recommended procedures. After 2 days from transfection, the transfected cells were harvested with versene (Invitrogen) and used as the stimulator cells (5×10^4 cells/well) for CTL activity assay.
The established CTL line raised against SEMA5B-A24-10-290 (SEQ ID NO: 41) peptide was examined for the ability to recognize target cells that express SEMA5B and HLA-A*2402 molecule. COS7 cells transfected with both the full SEMA5B and HLA-A*2402 gene (a specific model for the target cells that express SEMA5B and HLA-A*2402 gene) were prepared as a stimulator cells, and COS7 cells transfected with either full length of SEMA5B or HLA-A*2402 were used as the controls.

AYDIGLFAYF [SEQ ID NO: 41, AYDIGLFAYF]
Peptide specific CTL activity (IFN-gamma production), IFN-gamma ELISPOT ([1]; listed as SEMA5B-A24-10-290): potent IFN-gamma production; also recorded: significant and specific CTL activity | CTL inducibility [1]: particularly high CTL inducibility | IFN-gamma production of CTL lines, IFN-gamma ELISA [2]: potent IFN-gamma production | IFN-gamma production of CTL clones, IFN-gamma ELISA ([3]; listed as SEMA5B-A24-10-290): potent IFN-gamma production | Specific CTL activity against control COS7 cells expressing either HLA-A*2402 or SEMA5B ([4]; controls): no significant specific CTL activity | Specific CTL activity against COS7 cells transfected with both SEMA5B and HLA-A*2402 ([4]; listed as SEMA5B-A24-10-290): potent CTL activity; also recorded: specific CTL activity

AYRSQGACL [SEQ ID NO: 20, AYRSQGACL]
Peptide specific CTL activity (IFN-gamma production), IFN-gamma ELISPOT ([1]; listed as SEMA5B-A24-9-558): potent IFN-gamma production; also recorded: significant and specific CTL activity | CTL inducibility [1]: particularly high CTL inducibility

CFLGSGLLTL [SEQ ID NO: 47, CFLGSGLLTL]
Peptide specific CTL activity (IFN-gamma production), IFN-gamma ELISPOT ([1]; listed as SEMA5B-A24-10-1044): potent IFN-gamma production; also recorded: significant and specific CTL activity | CTL inducibility [1]: particularly high CTL inducibility

CYLEELHVL [SEQ ID NO: 2, CYLEELHVL]
Peptide specific CTL activity (IFN-gamma production), IFN-gamma ELISPOT ([1]; listed as SEMA5B-A24-9-512): potent IFN-gamma production; also recorded: significant and specific CTL activity | CTL inducibility [1]: particularly high CTL inducibility | IFN-gamma production of CTL lines, IFN-gamma ELISA [2]: potent IFN-gamma production | IFN-gamma production of CTL clones, IFN-gamma ELISA ([3]; listed as SEMA5B-A24-9-512): potent IFN-gamma production

FYYNELQSAF [SEQ ID NO: 40, FYYNELQSAF]
Peptide specific CTL activity (IFN-gamma production), IFN-gamma ELISPOT ([1]; listed as SEMA5B-A24-10-354): potent IFN-gamma production; also recorded: significant and specific CTL activity | CTL inducibility [1]: particularly high CTL inducibility

IFWASWGSW [SEQ ID NO: 8, IFWASWGSW]
Peptide specific CTL activity (IFN-gamma production), IFN-gamma ELISPOT ([1]; listed as SEMA5B-A24-9-723): potent IFN-gamma production; also recorded: significant and specific CTL activity | CTL inducibility [1]: particularly high CTL inducibility

IGLFAYFFL [SEQ ID NO: 10, IGLFAYFFL]
Peptide specific CTL activity (IFN-gamma production), IFN-gamma ELISPOT ([1]; listed as SEMA5B-A24-9-293): potent IFN-gamma production; also recorded: significant and specific CTL activity | CTL inducibility [1]: particularly high CTL inducibility | IFN-gamma production of CTL lines, IFN-gamma ELISA [2]: potent IFN-gamma production

KWLNEPNFV [SEQ ID NO: 9, KWLNEPNFV]
Peptide specific CTL activity (IFN-gamma production), IFN-gamma ELISPOT ([1]; listed as SEMA5B-A24-9-280): potent IFN-gamma production; also recorded: significant and specific CTL activity | CTL inducibility [1]: particularly high CTL inducibility

LYAATVIDF [SEQ ID NO: 1, LYAATVIDF]
Peptide specific CTL activity (IFN-gamma production), IFN-gamma ELISPOT [1]: no specific IFN-gamma production

LYIGTESGTI [SEQ ID NO: 54, LYIGTESGTI]
Peptide specific CTL activity (IFN-gamma production), IFN-gamma ELISPOT ([1]; listed as SEMA5B-A24-10-489): potent IFN-gamma production; also recorded: significant and specific CTL activity | CTL inducibility [1]: particularly high CTL inducibility

PYSEIPVIL [SEQ ID NO: 3, PYSEIPVIL]
Peptide specific CTL activity (IFN-gamma production), IFN-gamma ELISPOT ([1]; listed as SEMA5B-A24-9-1010): potent IFN-gamma production; also recorded: significant and specific CTL activity | CTL inducibility [1]: particularly high CTL inducibility | IFN-gamma production of CTL lines, IFN-gamma ELISA [2]: potent IFN-gamma production | IFN-gamma production of CTL clones, IFN-gamma ELISA ([3]; listed as SEMA5B-A24-9-1010): potent IFN-gamma production

RFSHLVVDL [SEQ ID NO: 13, RFSHLVVDL]
Peptide specific CTL activity (IFN-gamma production), IFN-gamma ELISPOT ([1]; listed as SEMA5B-A24-9-470): potent IFN-gamma production; also recorded: significant and specific CTL activity | CTL inducibility [1]: particularly high CTL inducibility

VFMCGTNAF [SEQ ID NO: 4, VFMCGTNAF]
Peptide specific CTL activity (IFN-gamma production), IFN-gamma ELISPOT ([1]; listed as SEMA5B-A24-9-196): potent IFN-gamma production; also recorded: significant and specific CTL activity | CTL inducibility [1]: particularly high CTL inducibility
